Measurements: paper PMC10787358 (Science translational medicine, 2023)
pIC50: −log10 of the molar value. “Also recorded” adds a separate entry of the source. Residues, ends and D or L forms follow the SMILES beside them. *: point of attachment. Cbz = O=C(OCc1ccccc1)*

Experiments:
SARS-CoV PLpro = conditions: cited from earlier work
USP2 = USP2 (Homo sapiens, UniProt O75604); assay: In vitro USP2 activity assay; type: biochemical
SARS-CoV-2 PLpro [1] = assay: PLpro-dependent ACE2 deubiquitination and ACE2 abundance in cells; type: cell-based
ACE2 protein = assay: Immunoblot of ACE2 protein abundance in cell lines; type: cell-based, human; conditions: for reduction of ACE2 protein abundance: Calu-3, HepG2 and H1650 cells, 48 h
SARS-CoV-2 WT [2] = assay: TCID50 assay, authentic SARS-CoV-2 WT in pretreated Calu-3 cells; type: cell-based; conditions: Calu-3 cells pretreated 48 h, MOI 0.01, TCID50 over time
hCoV-NL63 = assay: Cytopathic effect; type: cell-based; conditions: CPE assay; for inhibition of hCoV-NL63 infection: ACE2-dependent coronavirus
hCoV-OC43 [3] = assay: Cytopathic effect; type: cell-based; conditions: CPE assay, ACE2-independent strain
hCoV-OC43 [4] = assay: RT-qPCR of hCoV-OC43 in Huh7 cells; type: cell-based; conditions: Huh7 cells preinfected MOI 2 for 24 h, ML364 4 or 10 μM for 48 h
SARS-CoV-2 PLpro [5] = target: SARS-CoV-2 PLpro (Severe acute respiratory syndrome coronavirus 2, UniProt P0DTD1); assay: SARS-CoV-2 PLpro enzymatic activity assay; type: biochemical; conditions: in vitro
MERS-CoV pseudotype = type: cell-based
pseudotyped SARS-CoV-2 = type: cell-based; conditions: for pseudotype entry of SARS-CoV-2 after 48 h pretreatment: ML364 5 μM, UDCA plus ZGG 10 μM, Calu-3, HepG2, H1650
[6] = test system: ACE2-dependent bat sarbecoviruses; type: cell-based
C57BL/6 mice = assay: 2-week tolerability study in male C57BL/6 mice; type: in vivo, mouse
SARS-CoV-2 WT [7] = type: in vivo, K18-hACE2 transgenic mice; conditions: 50 mg/kg daily
SARS-CoV-2 = type: in vivo, K18-hACE2 transgenic mice
cyclin D1 / cell cycle = assay: TMT-based quantitative proteomic analysis and cell cycle analysis; set-up: species or system human
[8] = test system: SARS-CoV-2 Omicron BA.2 sublineage; set-up: species or system K18-hACE2 transgenic mice; conditions: mouse, in vivo
SARS-CoV-2 WT [9] = assay: TCID50 assay, SARS-CoV-2 WT in NHBE cells; type: cell-based; conditions: preinfected MOI 0.01 for 1 h, 10 μM, 48 h
[10] = 50 mg/kg once a day or 35 mg/kg twice a day, 2 weeks

USP2, sequence (O75604 whole entry): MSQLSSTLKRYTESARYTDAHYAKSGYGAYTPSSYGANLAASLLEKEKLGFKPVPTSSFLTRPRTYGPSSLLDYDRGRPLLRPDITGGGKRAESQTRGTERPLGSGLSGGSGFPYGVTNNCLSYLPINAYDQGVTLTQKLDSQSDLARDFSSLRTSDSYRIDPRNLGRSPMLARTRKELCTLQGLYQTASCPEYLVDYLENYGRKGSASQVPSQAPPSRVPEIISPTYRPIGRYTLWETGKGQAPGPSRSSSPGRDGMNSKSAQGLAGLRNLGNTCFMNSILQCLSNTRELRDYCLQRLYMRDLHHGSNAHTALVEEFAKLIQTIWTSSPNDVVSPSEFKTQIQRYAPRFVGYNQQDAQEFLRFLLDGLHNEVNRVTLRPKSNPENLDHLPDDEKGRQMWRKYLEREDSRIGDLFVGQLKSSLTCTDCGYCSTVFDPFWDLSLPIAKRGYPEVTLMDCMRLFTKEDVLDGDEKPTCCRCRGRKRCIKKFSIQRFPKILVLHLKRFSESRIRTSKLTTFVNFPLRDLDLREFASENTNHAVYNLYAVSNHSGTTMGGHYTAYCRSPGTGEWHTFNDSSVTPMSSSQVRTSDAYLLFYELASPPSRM

In the case of `S=c1nc[nH]c2nc[nH]c12` [6MP], the “SARS-CoV PLpro protease activity” value (SARS-CoV PLpro) is listed as “inhibit”.
For `Nc1nc2[nH]cnc2c(=S)[nH]1` [6TG], the “SARS-CoV PLpro protease activity” value (SARS-CoV PLpro) is given as “inhibit”.
For `Cc1ccc(N)cc1C(=O)N[C@H](C)c1cccc2ccccc12` [GRL0617], the “activity toward USP2” value (USP2; even at 100 μM) was “no obvious activity”, the “infection-induced reduction of ACE2” value (SARS-CoV-2 PLpro [1]) was “failed to prevent the infection-induced reduction of ACE2” and the “PLpro-induced ACE2 deubiquitination” value (SARS-CoV-2 PLpro [1]; in cells) was “diminished PLpro-induced ACE2 deubiquitination”.
For `CC(C)C[C@@H](C=O)NC(=O)[C@H](CC(C)C)NC(=O)[C@H](CC(C)C)NC(=O)OCc1ccccc1` [MG132] (Cbz-Leu-Leu-Leu-aldehyde), the ACE2 protein accumulation (ACE2 protein; HepG2 cells with cycloheximide) was “noticeable ACE2 protein accumulation”.
For `Cc1ccc(S(=O)(=O)Nc2cc(C(F)(F)F)ccc2C(=O)Nc2nc(-c3ccccc3)cs2)cc1` [ML364], the “viral replication of SARS-CoV-2 WT” value (SARS-CoV-2 WT [2]) was “obvious reduction”, the “inhibition of hCoV-NL63 infection” value (hCoV-NL63) was “effective” and the pIC50 (hCoV-NL63; read-out: IC50 against hCoV-NL63) was ~6.74. For the same compound, the “inhibition of hCoV-OC43 infection” value (hCoV-OC43 [3]) was “limited or no activity”, the “activity against hCoV-OC43” value (hCoV-OC43 [4]) was “did not observe any activity” and the “reduction of ACE2 protein abundance” value (ACE2 protein) was “reductions in ACE2 protein in all three cell lines”. For the same compound, the “ACE2 protein abundance decrease” value (ACE2 protein; HepG2, 10 μM, within 12 hours of treatment) was 50%, the “inhibition of USP2 activity” value (USP2) was “inhibited USP2 activity” and the “inhibition of SARS-CoV-2 PLpro” value (SARS-CoV-2 PLpro [5]) was “inhibitory effects”. The “entry of MERS-CoV pseudotype” value (MERS-CoV pseudotype) was “did not prevent the entry”, the “SARS-CoV-2 pseudovirus entry into cells” value (pseudotyped SARS-CoV-2; HepG2, ML364 5 μM) was “obvious reduction” and the “pseudotype entry of SARS-CoV-2 after 48 h pretreatment” value (pseudotyped SARS-CoV-2) was “prevented the pseudotype entry”. For the same compound, the “pseudotype entry of ACE2-dependent bat sarbecoviruses” value [6] was “promising activity”, the clinical signs (C57BL/6 mice; [10]) was “healthy without any clinical signs” and the “plasma angiotensin-(1-7) concentration” value (C57BL/6 mice; [10]) was “did not lead to any noticeable reduction”. The “ACE2 protein abundance in mouse tissues” value (C57BL/6 mice; pancreas, small intestine and lung of C57BL/6 mice) was “reduced abundance of ACE2 protein”, the “ACE2 protein abundance in the lungs” value (SARS-CoV-2 WT [7]) was “significantly (P = 0.01) reduced” and the “viral loads in the lungs” value (SARS-CoV-2 WT [7]; 4 days before 6-day challenge) was “significant (P = 3.6 × 10^−6) decrease”. The “lung pathology (H&E)” value (SARS-CoV-2 WT [7]; versus vehicle) was “reduction in overall lung pathology”, the “viral titers and SARS-CoV-2 E gene in lungs and small intestines” value (SARS-CoV-2; administration 6 hours after infection) was “decrease in viral titers” and the lung pathology (SARS-CoV-2; administration 6 hours after infection, versus vehicle) was “improved lung pathology”. The cell cycle effect (cyclin D1 / cell cycle) was “primarily cell cycle arrest”, the “cyclin D1 protein (TMT)” value (cyclin D1 / cell cycle; TMT-based proteomics) was “significant (P = 3.3 × 10^−6) decrease” and the “time of peak plasma concentration” value (single intraperitoneal dose, male C57BL/6 mice) was 30 min. The “cytotoxicity by LDH release” value (HepG2 and Calu-3 cells) was “minimal cytotoxicity”.
With `Cc1ccc(S(=O)(=O)Nc2ccc(C(F)(F)F)cc2C(=O)Nc2nc(-c3ccc(Br)cc3)cs2)cc1` [MS102] the “inhibition of hCoV-NL63 infection” value (hCoV-NL63) was “effective”, the “inhibition of hCoV-OC43 infection” value (hCoV-OC43 [3]) was “limited or no activity” and the “inhibition of USP2 activity” value (USP2) was “slightly enhanced activity”. For the same compound, the “entry of ACE2-dependent pseudotypes compared with ML364” value (pseudotyped SARS-CoV-2; HepG2, 5 μM, 24 h pretreatment) was “enhanced activity”, the “therapeutic efficacy (TCID50, lung pathology) compared with ML364” value (SARS-CoV-2; mouse, in vivo) was “enhanced efficacy compared with ML364” and the “survival extension versus vehicle-treated control” value [8] was 3 days. For the same compound, the “blocking infection of NHBE cells compared with ML364” value (SARS-CoV-2 WT [9]) was “improved efficacy”, the “peak plasma concentration relative to ML364” value (C57BL/6 mice) was “approximately threefold” and the “plasma concentration 24 hours after administration relative to ML364” value (C57BL/6 mice) was “approximately 2500 times”. For the same compound, the oral bioavailability (male C57BL/6 mice, p.o. 50 mg/kg, i.v. 5 mg/kg) was ~100% and the “cytotoxicity by LDH release” value (HepG2 and Calu-3 cells) was “minimal cytotoxicity”.
In the case of `CC(O)c1cc(C(=O)N[C@@H](C)Cn2ccc(-c3ccc(C#N)c(Cl)c3)n2)[nH]n1` (some centres unmarked) [ODM-201], the “reduction of ACE2 protein abundance” value (ACE2 protein) was “mild efficacy”.
With `C[C@H](CCC(=O)O)[C@H]1CC[C@H]2[C@@H]3[C@@H](O)C[C@@H]4C[C@H](O)CC[C@]4(C)[C@H]3CC[C@]12C` [UDCA, ursodeoxycholic acid] the “inhibition of hCoV-NL63 infection” value (hCoV-NL63) was “no inhibitory activity”, the “inhibition of hCoV-OC43 infection” value (hCoV-OC43 [3]) was “no inhibitory activity” and the “reduction of ACE2 protein abundance” value (ACE2 protein) was “only mildly reduced ACE2 protein”. The “pseudotype entry of SARS-CoV-2 after 48 h pretreatment” value (pseudotyped SARS-CoV-2) was “only showed mild effects; also recorded: mild effect”.
For `C/C=C1\C(=O)C[C@H]2[C@@H]3CCC4=CC(=O)CC[C@]4(C)[C@H]3CC[C@]12C` [ZGG, z-guggulsterone], the “pseudotype entry of SARS-CoV-2 after 48 h pretreatment” value (pseudotyped SARS-CoV-2) was “only showed mild effects”.
In the case of `CCC(CC)COC(=O)[C@H](C)N[P@](=O)(OC[C@H]1O[C@@](C#N)(c2ccc3c(N)ncnn23)[C@H](O)[C@@H]1O)Oc1ccccc1` [remdesivir], the “inhibition of hCoV-NL63 infection” value (hCoV-NL63) was “active” and the “inhibition of hCoV-OC43 infection” value (hCoV-OC43 [3]) was “active”.
